Read-outs that look alike come from different tables or passages of the source.
Assays:
[1] = molecular target: T1, purified LasB protein from P. aeruginosa (Pseudomonas aeruginosa, UniProt P14756); assay: Fluorometric assay to determine Ki (Abz-Ala-Gly-Leu-Ala-p-Nitro-Benzyl-Amide substrate); format: biochemical
T1 construct: purchased Merck or Charles River Laboratories
Summary of the method: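 Purified P. aeruginosa LasB (10–140 ng/ml) with 250 µM Abz-Ala-Gly-Leu-Ala-p-nitrobenzylamide in 50 mM Tris-HCl pH 7.4, 2.5 mM CaCl2, 0.01% Triton X100, 37 °C; hydrolysis fluorescence (Ex 340/Em 415 nm) followed over 30 min, inhibitor 0.0016–200 µM. Ki = IC50/(1+[S]/Km), Km 214 µM.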

LasB = molecular target: T2, LasB (Pseudomonas aeruginosa, UniProt P14756); assay: Elastin assay to determine % inhibition (Elastin Congo-Red, dialysed culture supernatant); format: biochemical, P. aeruginosa PAO1; details: read-out: Elastin hydrolysis % inhibition @ 50 / 25 µM inhibitor concentration
T2 construct: uses as source of enzyme dialysed supernatant from P. aeruginosa PAO1; endogenous in cells; host or cells: P. aeruginosa PAO1 culture supernatant, filtered and dialysed
Summary of the method: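 Enzyme source was dialysed PAO1 culture supernatant (50 mM Tris-HCl pH 7.4, 2.5 mM CaCl2), mixed with Elastin Congo-Red and 0.01% Triton X-100. Compound was routinely 50 to 1.56 µM, incubated overnight at 37 °C with shaking. Dye release at OD495 gave % inhibition relative to DMSO and no-enzyme controls.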

T2 sequence (P14756 198-498): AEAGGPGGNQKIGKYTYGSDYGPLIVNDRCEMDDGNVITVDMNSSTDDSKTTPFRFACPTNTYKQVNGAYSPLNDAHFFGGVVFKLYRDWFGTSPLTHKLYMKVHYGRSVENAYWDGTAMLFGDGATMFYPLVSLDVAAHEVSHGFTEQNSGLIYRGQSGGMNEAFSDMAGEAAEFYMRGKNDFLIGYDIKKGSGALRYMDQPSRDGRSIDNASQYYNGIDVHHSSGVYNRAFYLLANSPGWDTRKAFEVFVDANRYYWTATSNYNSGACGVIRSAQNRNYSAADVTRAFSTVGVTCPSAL
T1 sequence (P14756 198-498): as above

Row | SMILES | Ki [1] [µM] | inhibition at 25 µM (LasB) [%] | Ki ([1]; Ki calculated from IC50, [S] = 250 µM, Km = 214 µM, 37°C, pH 7.4) [µM]
1 | CN1CCN(CCCn2cc(-c3csc(CNC(=O)C4(CC(=O)O)Cc5ccccc5C4)n3)cn2)CC1 [Example 108, 2-[2-[[4-[1-[3-(4-methylpiperazin-1-yl)propyl]pyrazol-4-yl]thiazol-2-yl]methylcarbamoyl]indan-2-yl]acetic acid] | 0.05 to 0.2 | 60 to 75 | –
2 | O=C(O)CC1(C(=O)NCc2nc(-c3cnn(CCCN4CCCOCC4)c3)cs2)Cc2ccccc2C1 [Example 109, 2-[2-[[4-[1-[3-(1,4-oxazepan-4-yl)propyl]pyrazol-4-yl]thiazol-2-yl]methylcarbamoyl]indan-2-yl]acetic acid] | 0.05 to 0.2 | 60 to 75 | –
3 | COC1CCN(CCCn2cc(-c3csc(CNC(=O)C4(CC(=O)O)Cc5ccccc5C4)n3)cn2)CC1 [Example 110, 2-[2-[[4-[1-[3-(4-methoxy-1-piperidyl)propyl]pyrazol-4-yl]thiazol-2-yl]methylcarbamoyl]indan-2-yl]acetic acid] | 0.05 to 0.2 | 60 to 75 | –
4 | CN1CCN(C(=O)N2CCN(CCCn3cc(-c4csc(CNC(=O)C5(CC(=O)O)Cc6ccccc6C5)n4)cn3)CC2)CC1 [Example 112, 2-[2-[[4-[1-[3-[4-(4-methylpiperazine-1-carbonyl)piperazin-1-yl]propyl]pyrazol-4-yl]thiazol-2-yl]methylcarbamoyl]indan-2-yl]acetic acid] | 0.05 to 0.2 | 60 to 75 | –
5 | CN1CCC(C(=O)N2CCN(CCCn3cc(-c4csc(CNC(=O)C5(CC(=O)O)Cc6ccccc6C5)n4)cn3)CC2)CC1 [Example 114, 2-[2-[[4-[1-[3-[4-(1-methylpiperidine-4-carbonyl)piperazin-1-yl]propyl]pyrazol-4-yl]thiazol-2-yl]methylcarbamoyl]indan-2-yl]acetic acid] | 0.05 to 0.2 | 60 to 75 | –
6 | CN1CCN(CCCn2cc(-c3csc(CNC(=O)C4(CC(=O)O)Cc5ccccc5C4)n3)cn2)CC1=O [Example 116, 2-[2-[[4-[1-[3-(4-methyl-3-oxo-piperazin-1-yl)propyl]pyrazol-4-yl]thiazol-2-yl]methylcarbamoyl]indan-2-yl]acetic acid] | 0.05 to 0.2 | 60 to 75 | –
7 | CC(=O)N1CCN(CCn2cc(-c3csc(CNC(=O)C4(CC(=O)O)Cc5ccccc5C4)n3)cn2)CC1 [Example 119, 2-[2-[[4-[1-[2-(4-acetylpiperazin-1-yl)ethyl]pyrazol-4-yl]thiazol-2-yl]methylcarbamoyl]indan-2-yl]acetic acid] | 0.05 to 0.2 | 60 to 75 | –
8 | C[n+]1ccc(Cn2cc(-c3csc(CNC(=O)C4(CC(=O)[O-])Cc5ccccc5C4)n3)cn2)cc1 [Example 120, 2-[2-[[4-[1-[(1-methylpyridin-1-ium-4-yl)methyl]pyrazol-4-yl]thiazol-2-yl]methylcarbamoyl]indan-2-yl]acetate] | 0.05 to 0.2 | 60 to 75 | –
9 | COc1ccc(-c2csc(CNC(=O)C3(CC(=O)O)Cc4ccccc4C3)n2)cc1S(=O)(=O)N1CCC(N(C)C)CC1 [Example 121, 2-[2-[[4-[3-[[4-(dimethylamino)-1-piperidyl]sulfonyl]-4-methoxy-phenyl]thiazol-2-yl]methylcarbamoyl]indan-2-yl]acetic acid] | 0.05 to 0.2 | 60 to 75 | –
10 | COc1ccc(-c2csc(CNC(=O)C3(CC(=O)O)Cc4ccccc4C3)n2)cc1S(=O)(=O)N1CCN(C)CC1 [Example 122] | – | > 75 | 0.05 to 0.2
11 | COc1ccc(-c2csc(CNC(=O)C3(CC(=O)O)Cc4cc(F)c(F)cc4C3)n2)cc1S(=O)(=O)N1CCC(N(C)C)CC1 [Example 123, 2-[2-[[4-[3-[[4-(dimethylamino)-1-piperidyl]sulfonyl]-4-methoxy-phenyl]thiazol-2-yl]methylcarbamoyl]-5,6-difluoro-indan-2-yl]acetic acid] | < 0.05 | 60 to 75 | –
12 | COc1ccc(-c2csc(CNC(=O)C3(CC(=O)[O-])Cc4cc(F)c(F)cc4C3)n2)cc1S(=O)(=O)N1CCC([N+](C)(C)C)CC1 [Example 124, 2-[5,6-difluoro-2-[[4-[4-methoxy-3-[[4-(trimethylammonio)-1-piperidyl]sulfonyl]phenyl]thiazol-2-yl]methylcarbamoyl]indan-2-yl] acetate] | 0.05 to 0.2 | 60 to 75 | –
13 | COc1ccc(S(=O)(=O)N2CCC(N(C)C)CC2)cc1-c1csc(CNC(=O)C2(CC(=O)O)Cc3cc(F)c(F)cc3C2)n1 [Example 125, 2-[2-[[4-[5-[[4-(dimethylamino)-1-piperidyl]sulfonyl]-2-methoxy-phenyl]thiazol-2-yl]methylcarbamoyl]-5,6-difluoro-indan-2-yl]acetic acid] | 0.05 to 0.2 | 10 to 60 | –
14 | COc1ccc(S(=O)(=O)N2CCC([N+](C)(C)C)CC2)cc1-c1csc(CNC(=O)C2(CC(=O)[O-])Cc3cc(F)c(F)cc3C2)n1 [Example 126, 2-[5,6-difluoro-2-[[4-[2-methoxy-5-[[4-(trimethylammonio)-1-piperidyl]sulfonyl]phenyl]thiazol-2-yl]methylcarbamoyl]indan-2-yl]acetate] | 0.05 to 0.2 | 60 to 75 | –
15 | CN1CCN(S(=O)(=O)c2cccc(-c3csc(CNC(=O)C4(CC(=O)O)Cc5ccccc5C4)n3)c2)CC1 [Example 127, 2-[2-[[4-[3-(4-methylpiperazin-1-yl)sulfonylphenyl]thiazol-2-yl]methylcarbamoyl]indan-2-yl]acetic acid] | 0.05 to 0.2 | > 75 | –
16 | C[N+]1(C)CCN(S(=O)(=O)c2cccc(-c3csc(CNC(=O)C4(CC(=O)[O-])Cc5ccccc5C4)n3)c2)CC1 [Example 128, 2-[2-[[4-[3-(4,4-dimethylpiperazin-4-ium-1-yl)sulfonylphenyl]thiazol-2-yl]methylcarbamoyl]indan-2-yl]acetate] | 0.2 to 10 | 10 to 60 | –
17 | CN(C)CCNS(=O)(=O)c1cccc(-c2csc(CNC(=O)C3(CC(=O)O)Cc4ccccc4C3)n2)c1 [Example 129, 2-[2-[[4-[3-[2-(dimethylamino)ethylsulfamoyl]phenyl]thiazol-2-yl]methylcarbamoyl]indan-2-yl]acetic acid] | 0.2 to 10 | 60 to 75 | –
18 | CN1CCN(S(=O)(=O)c2ccc(-c3csc(CNC(=O)C4(CC(=O)O)Cc5ccccc5C4)n3)cc2)CC1 [Example 130, 2-[2-[[4-[4-(4-methylpiperazin-1-yl)sulfonylphenyl]thiazol-2-yl]methylcarbamoyl]indan-2-yl]acetic acid] | 0.05 to 0.2 | 60 to 75 | –
19 | CN1CCN(S(=O)(=O)c2cc(-c3csc(CNC(=O)C4(CC(=O)O)Cc5ccccc5C4)n3)ccc2OCCN2CCOCC2)CC1 [Example 132, 2-[2-[[4-[3-(4-methylpiperazin-1-yl)sulfonyl-4-(2-morpholinoethoxy)phenyl]thiazol-2-yl]methylcarbamoyl]indan-2-yl]acetic acid] | < 0.05 | > 75 | –
20 | CN1CCN(S(=O)(=O)c2cc(-c3csc(CNC(=O)C4(CC(=O)O)Cc5ccccc5C4)n3)ccc2OCCCN2CCOCC2)CC1 [Example 133, 2-[2-[[4-[3-(4-methylpiperazin-1-yl)sulfonyl-4-(3-morpholinopropoxy)phenyl]thiazol-2-yl]methylcarbamoyl]indan-2-yl]acetic acid] | < 0.05 | 60 to 75 | –
21 | CN(C)C1CCN(S(=O)(=O)c2cc(-c3csc(CNC(=O)C4(CC(=O)O)Cc5cc(F)c(F)cc5C4)n3)ccc2OCCN2CCOCC2)CC1 [Example 134, 2-[2-[[4-[3-[[4-(dimethylamino)-1-piperidyl]sulfonyl]-4-(2-morpholinoethoxy)phenyl]thiazol-2-yl]methylcarbamoyl]-5,6-difluoro-indan-2-yl]acetic acid] | 0.05 to 0.2 | 60 to 75 | –
22 | CS(=O)(=O)c1cc(-c2csc(CNC(=O)C3(CC(=O)O)Cc4ccccc4C3)n2)ccc1OCCN1CCOCC1 [Example 135, 2-[2-[[4-[3-methylsulfonyl-4-(2-morpholinoethoxy)phenyl]thiazol-2-yl]methylcarbamoyl]indan-2-yl]acetic acid] | < 0.05 | > 75 | –
23 | C[N+]1(CCOc2ccc(-c3csc(CNC(=O)C4(CC(=O)[O-])Cc5ccccc5C4)n3)cc2S(C)(=O)=O)CCOCC1 [Example 136, 2-[2-[[4-[4-[2-(4-methylmorpholin-4-ium-4-yl)ethoxy]-3-methylsulfonyl-phenyl]thiazol-2-yl]methylcarbamoyl]indan-2-yl]acetate] | 0.05 to 0.2 | 60 to 75 | –
24 | COc1ccc(-c2csc(CNC(=O)C3(CC(=O)O)Cc4ccccc4C3)n2)cc1C(=O)N1CCC(N(C)C)CC1 [Example 137, 2-[2-[[4-[3-[4-(dimethylamino)piperidine-1-carbonyl]-4-methoxy-phenyl]thiazol-2-yl]methylcarbamoyl]indan-2-yl]acetic acid] | 0.05 to 0.2 | 10 to 60 | –
25 | COc1ccc(-c2csc(CNC(=O)C3(CC(=O)[O-])Cc4ccccc4C3)n2)cc1C(=O)N1CCC([N+](C)(C)C)CC1 [Example 138, 2-[2-[[4-[4-methoxy-3-[4-(trimethylammonio)piperidine-1-carbonyl]phenyl]thiazol-2-yl]methylcarbamoyl]indan-2-yl]acetate] | 0.2 to 10 | 10 to 60 | –

— EP3628672A1 (priority 2018, dated 2020)
